In patent US20240287138A1, “CYCLIC PEPTIDES FOR INHIBITING TNF RECEPTOR 1 ACTIVITY” (Merck Sharp & Dohme LLC, priority 2023, published 2024):
Numbered stars: 1 amine (or outer) side, 2 acyl side, 3 side chain; on linkers, the order of the positions; unused ones are H or OH. Square brackets hold non-standard residues; d marks the D form. Peptide text beside a SMILES is read from it. * marks the point of attachment. Trp(βS-Me,7-OMe) = COc1cccc2c([C@H](C)[C@H](N)C(=O)O)c[nH]c12; X21 = COc1cccc2c([C@H](C)[C@H](N[*:1])C(=O)[*:2])c(C)[nH]c12; Phe(4-SO2NH2) = N[C@@H](Cc1ccc(S(N)(=O)=O)cc1)C(=O)O; Phe(2-F,4-COOH) = N[C@@H](Cc1ccc(C(=O)O)cc1F)C(=O)O; dPro(trans-4-NMe2) = CN(C)[C@@H]1CN[C@@H](C(=O)O)C1; Trp(7-Br) = N[C@@H](Cc1c[nH]c2c(Br)cccc12)C(=O)O; Trp(7-CN) = N#Cc1cccc2c(C[C@H](N)C(=O)O)c[nH]c12; Trp(7-Cl) = N[C@@H](Cc1c[nH]c2c(Cl)cccc12)C(=O)O; Phe(3-CONH2) = NC(=O)c1cccc(C[C@H](N)C(=O)O)c1; Phe(4-CONH2) = NC(=O)c1ccc(C[C@H](N)C(=O)O)cc1; Phe(4-COOH) = N[C@@H](Cc1ccc(C(=O)O)cc1)C(=O)O; Trp(7-aza) = N[C@@H](Cc1c[nH]c2ncccc12)C(=O)O; dPro(trans-4-F) = O=C(O)[C@H]1C[C@H](F)CN1; Pip(5R-OH) = O=C(O)[C@@H]1CC[C@@H](O)CN1; X1 = O=C([C@@H]1CC[C@H](N[*:1])C1)[*:2]; Gly(Nα-CH2CH2CONH2) = NC(=O)CCNCC(=O)O; X31 = O=C(CN(CCc1nnco1)[*:1])[*:2]; Pip(4-aza) = O=C(O)[C@@H]1CNCCN1; 4Pal = N[C@@H](Cc1ccncc1)C(=O)O; dHyp = O=C(O)[C@H]1C[C@H](O)CN1; aThr = C[C@H](O)[C@H](N)C(=O)O; Ahp(2) = CCCCC[C@H](N)C(=O)O; αMeS = C[C@](N)(CO)C(=O)O; Carboxymethyl = O=C(O)C*; Nle = CCCC[C@H](N)C(=O)O; Sar = CNCC(=O)O

Assays:
human TNFR2 ECD protein = target: T1, human TNFR2 ECD protein (Homo sapiens, UniProt P20333); assay: SPR off-target binding (selectivity) to human TNFR2 ECD
T1 construct: HRV 3C protease cleavage site (C); 6His (C, cleaved yes); made in house; host or cells: Sf21 insect cells (baculovirus), secreted
T1 sequence (P20333 23-257): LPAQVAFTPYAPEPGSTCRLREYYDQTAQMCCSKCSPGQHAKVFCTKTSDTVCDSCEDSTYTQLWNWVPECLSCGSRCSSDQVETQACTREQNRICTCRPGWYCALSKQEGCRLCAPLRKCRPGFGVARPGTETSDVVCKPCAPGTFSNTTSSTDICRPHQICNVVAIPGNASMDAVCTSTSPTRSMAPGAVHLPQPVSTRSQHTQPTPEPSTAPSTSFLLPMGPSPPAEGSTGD
Method in brief: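 Biotinylated avi-tagged human TNFR1 or TNFR2 ECD, expressed in Sf21 insect cells, captured on streptavidin SPR chip; peptide analytes run in 10 mM HEPES pH 7.4, 150 mM NaCl, 3 mM EDTA, 0.05% P20, 2% DMSO. kon and koff measured, affinity KA calculated.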

[1] = target: T2, TNFα-induced NF-κB signal transduction pathway (TNFR1 signaling) in THP-1 cells (Homo sapiens, UniProt P19438); assay: THP-1 Lucia NF-κB reporter cell assay, inhibition of TNFα-induced NF-κB signaling; assay type: cell-based; conditions: THP-1 NF-κB Lucia reporter cells, 10 ng/mL TNFα, 16-18 h, secreted luciferase; read-out: THP-1 IC50
T2 sequence (P19438 30-455): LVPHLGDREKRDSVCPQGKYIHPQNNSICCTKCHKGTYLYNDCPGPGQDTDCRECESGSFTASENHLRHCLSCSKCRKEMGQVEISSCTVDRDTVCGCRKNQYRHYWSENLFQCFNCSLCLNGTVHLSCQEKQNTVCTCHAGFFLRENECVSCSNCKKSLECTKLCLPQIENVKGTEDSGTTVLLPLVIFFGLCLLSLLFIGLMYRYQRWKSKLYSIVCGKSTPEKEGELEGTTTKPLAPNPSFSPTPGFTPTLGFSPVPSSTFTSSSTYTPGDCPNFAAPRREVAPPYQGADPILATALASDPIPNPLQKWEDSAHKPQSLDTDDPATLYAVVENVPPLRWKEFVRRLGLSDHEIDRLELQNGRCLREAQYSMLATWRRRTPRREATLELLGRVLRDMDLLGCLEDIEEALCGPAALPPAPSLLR
Method in brief: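 IC50 from a 4-parameter logistic fit of secreted luciferase luminescence (QUANTI-Luc), normalised to min/max controls. Reporter THP-1 cells were exposed to peptides for 1 h at 37 °C before 10 ng/mL TNFα (final) was added overnight (16–18 h).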

## CCCC[C@@H]1NC(=O)[C@@H]2CC[C@@H](C2)NC(=O)[C@H]([C@@H](C)c2c[nH]c3c(OC)cccc23)NC(=O)CN(C)C(=O)[C@H](Cc2ccc(C(=O)O)cc2)NC(=O)[C@H](Cc2ccc(C(N)=O)cc2)NC(=O)[C@](C)(CO)NC(=O)[C@H](Cc2c[nH]c3c(Cl)cccc23)NC(=O)[C@H](Cc2ccncc2)NC(=O)[C@H](CC(N)=O)NC(=O)[C@H]2C[C@H](F)CN2C(=O)[C@H](Cc2c[nH]c3ccccc23)NC(=O)[C@@H]2CC[C@@H](O)CN2C(=O)[C@H](Cc2ccncc2)NC1=O [SEQ ID NO. 101] (cyclo([4Pal][Trp(7-Cl)][αMeS][Phe(4-CONH2)][Phe(4-COOH)][Sar][Trp(βS-Me,7-OMe)][X1][Nle][4Pal][Pip(5R-OH)]W[dPro(trans-4-F)]N))
Human TNFR2 ECD protein
  Kd: > 1000 nM
[1]
  IC50: 0.9 nM

## CCCC[C@@H]1NC(=O)[C@@H]2CC[C@@H](C2)NC(=O)[C@H]([C@@H](C)c2c(C)[nH]c3c(OC)cccc23)NC(=O)CN(C)C(=O)[C@H](Cc2ccc(C(=O)O)cc2)NC(=O)[C@H](Cc2ccc(C(N)=O)cc2)NC(=O)[C@](C)(CO)NC(=O)[C@H](Cc2c[nH]c3c(Cl)cccc23)NC(=O)[C@H](Cc2ccc(C(=O)O)cc2)NC(=O)[C@H](CC(N)=O)NC(=O)[C@H]2C[C@H](O)CN2C(=O)[C@H](Cc2c[nH]c3ccccc23)NC(=O)[C@@H]2CC[C@@H](O)CN2C(=O)[C@H](Cc2ccncc2)NC1=O [SEQ ID NO. 106] (cyclo([4Pal][Pip(5R-OH)]W[dHyp]N[Phe(4-COOH)][Trp(7-Cl)][αMeS][Phe(4-CONH2)][Phe(4-COOH)][Sar][X21][X1][Nle]))
Human TNFR2 ECD protein
  Kd: > 1000 nM
[1]
  IC50: 0.6 nM

## CCCCC[C@@H]1NC(=O)[C@@H]2CC[C@@H](C2)NC(=O)[C@H]([C@@H](C)c2c[nH]c3c(OC)cccc23)NC(=O)CN(C)C(=O)[C@H](Cc2cccc(C(N)=O)c2)NC(=O)[C@H](Cc2ccc(C(N)=O)cc2)NC(=O)[C@](C)(CO)NC(=O)[C@H](Cc2c[nH]c3c(Br)cccc23)NC(=O)[C@H](Cc2ccc(C(=O)O)cc2)NC(=O)[C@H](CC(N)=O)NC(=O)[C@H]2C[C@H](O)CN2C(=O)[C@H](Cc2c[nH]c3ccccc23)NC(=O)[C@@H]2CNCCN2C(=O)[C@H](Cc2ccncc2)NC1=O [SEQ ID NO. 109] (cyclo([4Pal][Pip(4-aza)]W[dHyp]N[Phe(4-COOH)][Trp(7-Br)][αMeS][Phe(4-CONH2)][Phe(3-CONH2)][Sar][Trp(βS-Me,7-OMe)][X1][Ahp(2)]))
Human TNFR2 ECD protein
  Kd: > 1000 nM
[1]
  IC50: 0.8 nM

## CCCC[C@@H]1NC(=O)[C@@H]2CC[C@@H](C2)NC(=O)[C@H]([C@@H](C)c2c[nH]c3c(OC)cccc23)NC(=O)CN(C)C(=O)[C@H](Cc2ccc(C(N)=O)cc2)NC(=O)[C@H](Cc2ccc(C(N)=O)cc2)NC(=O)[C@](C)(CO)NC(=O)[C@H](Cc2c[nH]c3c(C#N)cccc23)NC(=O)[C@H](Cc2ccc(C(=O)O)cc2)NC(=O)[C@H](CC(N)=O)NC(=O)[C@H]2C[C@H](F)CN2C(=O)[C@H](Cc2c[nH]c3ccccc23)NC(=O)[C@@H]2CC[C@@H](O)CN2C(=O)[C@H](Cc2ccncc2)NC1=O [SEQ ID NO. 114] (cyclo([4Pal][Pip(5R-OH)]W[dPro(trans-4-F)]N[Phe(4-COOH)][Trp(7-CN)][αMeS][Phe(4-CONH2)][Phe(4-CONH2)][Sar][Trp(βS-Me,7-OMe)][X1][Nle]))
Human TNFR2 ECD protein
  Kd: > 1000 nM
[1]
  IC50: 0.9 nM

## CCCC[C@@H]1NC(=O)[C@@H]2CC[C@@H](C2)NC(=O)[C@H]([C@@H](C)c2c[nH]c3c(OC)cccc23)NC(=O)CN(C)C(=O)[C@H](Cc2ccc(C(=O)O)cc2)NC(=O)[C@H](Cc2ccc(C(N)=O)cc2)NC(=O)[C@](C)(CO)NC(=O)[C@H](Cc2c[nH]c3c(C#N)cccc23)NC(=O)[C@H](Cc2ccncc2)NC(=O)[C@H](CC(N)=O)NC(=O)CN(CCc2nnco2)C(=O)[C@H](Cc2c[nH]c3ncccc23)NC(=O)[C@@H]2CC[C@@H](O)CN2C(=O)[C@H](Cc2ccncc2)NC1=O [SEQ ID NO. 121] (cyclo([4Pal][Trp(7-CN)][αMeS][Phe(4-CONH2)][Phe(4-COOH)][Sar][Trp(βS-Me,7-OMe)][X1][Nle][4Pal][Pip(5R-OH)][Trp(7-aza)][X31]N))
Human TNFR2 ECD protein
  Kd: > 1000 nM
[1]
  IC50: 0.9 nM

## CCCC[C@@H]1NC(=O)[C@@H]2CC[C@@H](C2)NC(=O)[C@H]([C@@H](C)c2c[nH]c3c(OC)cccc23)NC(=O)CN(C)C(=O)[C@H](Cc2ccc(C(N)=O)cc2)NC(=O)[C@H](Cc2ccc(C(N)=O)cc2)NC(=O)[C@](C)(CO)NC(=O)[C@H](Cc2c[nH]c3c(C#N)cccc23)NC(=O)[C@H](Cc2ccc(C(=O)O)cc2)NC(=O)[C@H]([C@H](C)O)NC(=O)[C@H]2C[C@H](O)CN2C(=O)[C@H](Cc2c[nH]c3ncccc23)NC(=O)[C@@H]2CC[C@@H](O)CN2C(=O)[C@H](Cc2ccncc2)NC1=O [SEQ ID NO. 122] (cyclo([4Pal][Pip(5R-OH)][Trp(7-aza)][dHyp][aThr][Phe(4-COOH)][Trp(7-CN)][αMeS][Phe(4-CONH2)][Phe(4-CONH2)][Sar][Trp(βS-Me,7-OMe)][X1][Nle]))
Human TNFR2 ECD protein
  Kd: > 1000 nM
[1]
  IC50: 0.9 nM

## CCCCC[C@@H]1NC(=O)[C@@H]2CC[C@@H](C2)NC(=O)[C@H]([C@@H](C)c2c[nH]c3c(OC)cccc23)NC(=O)CN(C)C(=O)[C@H](Cc2cccc(C(N)=O)c2)NC(=O)[C@H](Cc2ccc(C(N)=O)cc2)NC(=O)[C@](C)(CO)NC(=O)[C@H](Cc2c[nH]c3c(C#N)cccc23)NC(=O)[C@H](Cc2ccc(C(=O)O)cc2)NC(=O)[C@H](CC(N)=O)NC(=O)[C@H]2C[C@H](N(C)C)CN2C(=O)[C@H](Cc2c[nH]c3ccccc23)NC(=O)[C@@H]2CC[C@@H](O)CN2C(=O)[C@H](Cc2ccncc2)NC1=O [SEQ ID NO. 128] (cyclo([4Pal][Pip(5R-OH)]W[dPro(trans-4-NMe2)]N[Phe(4-COOH)][Trp(7-CN)][αMeS][Phe(4-CONH2)][Phe(3-CONH2)][Sar][Trp(βS-Me,7-OMe)][X1][Ahp(2)]))
Human TNFR2 ECD protein
  Kd: > 1000 nM
[1]
  IC50: 0.8 nM

## CCCC[C@@H]1NC(=O)[C@@H]2CC[C@@H](C2)NC(=O)[C@H]([C@@H](C)c2c[nH]c3c(OC)cccc23)NC(=O)CN(C)C(=O)[C@H](Cc2ccc(C(=O)O)cc2)NC(=O)[C@H](Cc2ccc(C(N)=O)cc2)NC(=O)[C@](C)(CO)NC(=O)[C@H](Cc2c[nH]c3c(C#N)cccc23)NC(=O)[C@H](Cc2ccc(C(=O)O)cc2)NC(=O)[C@H](CC(N)=O)NC(=O)CN(CCC(N)=O)C(=O)[C@H](Cc2c[nH]c3ccccc23)NC(=O)[C@@H]2CC[C@@H](O)CN2C(=O)[C@H](Cc2ccncc2)NC1=O [SEQ ID NO. 130] (cyclo([4Pal][Pip(5R-OH)]W[Gly(Nα-CH2CH2CONH2)]N[Phe(4-COOH)][Trp(7-CN)][αMeS][Phe(4-CONH2)][Phe(4-COOH)][Sar][Trp(βS-Me,7-OMe)][X1][Nle]))
Human TNFR2 ECD protein
  Kd: > 1000 nM
[1]
  IC50: 0.7 nM

## CCCC[C@@H]1NC(=O)[C@@H]2CC[C@@H](C2)NC(=O)[C@H]([C@@H](C)c2c[nH]c3c(OC)cccc23)NC(=O)CN(C)C(=O)[C@H](Cc2ccc(C(=O)O)cc2F)NC(=O)[C@H](Cc2ccc(S(N)(=O)=O)cc2)NC(=O)[C@](C)(CO)NC(=O)[C@H](Cc2c[nH]c3c(C#N)cccc23)NC(=O)[C@H](Cc2ccc(C(=O)O)cc2F)NC(=O)[C@H](CC(N)=O)NC(=O)[C@H]2C[C@H](OCC(=O)O)CN2C(=O)[C@H](Cc2c[nH]c3ncccc23)NC(=O)[C@@H]2CC[C@@H](O)CN2C(=O)[C@H](Cc2ccncc2)NC1=O [SEQ ID NO. 134] (cyclo([4Pal][Pip(5R-OH)][Trp(7-aza)][dHyp](Carboxymethyl)N[Phe(2-F,4-COOH)][Trp(7-CN)][αMeS][Phe(4-SO2NH2)][Phe(2-F,4-COOH)][Sar][Trp(βS-Me,7-OMe)][X1][Nle]))
Human TNFR2 ECD protein
  Kd: > 1000 nM
[1]
  IC50: 0.4 nM
